Experimental data reported in patent publication US20100267561A1, “HERBICIDAL PYRIDAZINONE DERIVATIVES” (priority 2007, published 2010).

How the values were obtained:
Format in all cases: in vivo
[1] = test system: barnyardgrass (Echinochloa crus-galli); assay: Test A pre-/postemergence plant response
In short: (§1)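 Seeds in loam soil/sand blend treated preemergence by directed soil spray, with simultaneous postemergence spray on 2–10 cm plants at one- to two-leaf stage; compounds in non-phytotoxic solvent with surfactant. Injury visually rated versus untreated controls after about 10 days in greenhouse, 0 (no effect) to 100 (complete control).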

corn (Zea mays) = assay: Test A pre-/postemergence plant response
In short: as §1

[2] = test system: giant foxtail (Setaria faberi); assay: Test A pre-/postemergence plant response
In short: as §1

[3] = test system: large crabgrass (Digitaria sanguinalis); assay: Test A pre-/postemergence plant response
In short: as §1

[4] = test system: morningglory (Ipomoea coccinea); assay: Test A pre-/postemergence plant response
In short: as §1

[5] = test system: pigweed (Amaranthus retroflexus); assay: Test A pre-/postemergence plant response
In short: as §1

[6] = test system: velvetleaf (Abutilon theophrasti); assay: Test A pre-/postemergence plant response
In short: as §1

[7] = test system: wheat (Triticum aestivum); assay: Test A pre-/postemergence plant response
In short: as §1

[8] = test system: canarygrass (Phalaris minor); assay: Test B postemergence plant response; settings: for Plant response rating, Canarygrass: Postemergence
In short: (§2)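 Postemergence greenhouse test; plants at 2 to 18 cm (1- to 4-leaf stage) given formulated test chemical, held 13 to 15 days, then visually rated against untreated controls on a 0 (no effect) to 100 (complete control) scale; dash means no result.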

[9] = test system: chickweed (Stellaria media); assay: Test B postemergence plant response; settings: for Chickweed plant response rating: 8 g ai/ha, postemergence, 0-100 scale; for Plant response rating, Chickweed: Postemergence
In short: as §2

[10] = test system: windgrass (Apera spica-venti); assay: Test B postemergence plant response; settings: for Windgrass plant response rating: postemergence, 0-100 scale; for Plant response rating, Windgrass: Postemergence
In short: as §2

[11] = test system: winter barley (Hordeum vulgare); assay: Test B postemergence plant response; settings: for Plant response rating, Barley: Postemergence
In short: as §2

[12] = test system: barnyardgrass (Echinochloa crus-galli); assay: Test B flooded paddy test plant response
In short: (§3)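 Compounds were added directly to paddy water over 2-leaf-stage plants in pots flooded 3 cm above soil, water depth maintained. Visual injury scored against controls after 13 to 15 days in greenhouse, 0 (none) to 100 (complete control); dash indicates no result.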

[13] = test system: umbrella sedge (Cyperus difformis); assay: Test B flooded paddy test plant response
In short: as §3

[14] = Postemergence, 31 g ai/ha, 0 to 100 scale (0 no effect, 100 complete control)
[15] = Postemergence, 125 g ai/ha, 0 to 100 scale, 0 no effect, 100 complete control
[16] = Preemergence, 31 g ai/ha, 0 to 100 scale, 0 is no effect, 100 is complete control
[17] = Preemergence, 125 g ai/ha, 0 to 100 scale (0 no effect, 100 complete control)
[18] = 31 g ai/ha, scale 0 to 100, 0 no effect, 100 complete control
[19] = 62 g ai/ha, scale 0 to 100, 0 no effect, 100 complete control
[20] = 16 g ai/ha, scale 0 to 100, 0 no effect, 100 complete control
[21] = Flood (flooded paddy test), 62 g ai/ha, scale 0 to 100, 0 no effect, 100 complete control
[22] = Flood (flooded paddy test), 125 g ai/ha, scale 0 to 100, 0 no effect, 100 complete control
[23] = Flood (flooded paddy test), 250 g ai/ha, scale 0 to 100, 0 no effect, 100 complete control
[24] = Flood, 31 g ai/ha, scale 0 to 100
[25] = 8 g ai/ha, postemergence, 0-100 scale
[26] = Postemergence, 500 g ai/ha, 0 to 100 scale, 0 no effect, 100 complete control
[27] = Preemergence, 500 g ai/ha, 0 to 100 scale (0 no effect, 100 complete control)

SMILES: CCc1cc(-c2ccc(Cl)cc2)nn1-c1c(OC(=O)OC(C)C)cnn(C)c1=O [Compound 41]
- Plant response rating, Barnyardgrass [1, 14]: 80
- Plant response rating, Barnyardgrass [1, 15]: 100
- Plant response rating, Barnyardgrass [1, 16]: 100
- Plant response rating, Barnyardgrass [1, 17]: 100
- Plant response rating, Corn (corn (Zea mays); [14]): 60
- Plant response rating, Corn (corn (Zea mays); [15]): 90
- Plant response rating, Corn (corn (Zea mays); [16]): 30
- Plant response rating, Corn (corn (Zea mays); [17]): 90
- Plant response rating, Foxtail, Giant [2, 14]: 70
- Plant response rating, Foxtail, Giant [2, 15]: 90
- Plant response rating, Foxtail, Giant [2, 16]: 90
- Plant response rating, Foxtail, Giant [2, 17]: 100
- Plant response rating, Crabgrass, Large [3, 14]: 20
- Plant response rating, Crabgrass, Large [3, 15]: 90
- Plant response rating, Crabgrass, Large [3, 16]: 80
- Plant response rating, Crabgrass, Large [3, 17]: 100
- Plant response rating, Morningglory [4, 14]: 0
- Plant response rating, Morningglory [4, 15]: 0
- Plant response rating, Morningglory [4, 16]: 0
- Plant response rating, Morningglory [4, 17]: 0
- Plant response rating, Pigweed [5, 14]: 0
- Plant response rating, Pigweed [5, 15]: 0
- Plant response rating, Pigweed [5, 16]: 0
- Plant response rating, Pigweed [5, 17]: 0
- Plant response rating, Velvetleaf [6, 14]: 0
- Plant response rating, Velvetleaf [6, 15]: 0
- Plant response rating, Velvetleaf [6, 16]: 0
- Plant response rating, Velvetleaf [6, 17]: 0
- Plant response rating, Wheat [7, 14]: 60
- Plant response rating, Wheat [7, 15]: 70
- Plant response rating, Wheat [7, 16]: 50
- Plant response rating, Wheat [7, 17]: 80
- Plant response rating, Canarygrass ([8]; 16 g ai/ha, scale 0 to 100): 0
- Plant response rating, Canarygrass [8, 18]: 0
- Plant response rating, Canarygrass [8, 19]: 0
- Chickweed plant response rating [9]: 0
- Plant response rating, Chickweed ([9]; 16 g ai/ha, scale 0 to 100): 0
- Plant response rating, Chickweed [9, 18]: 0
- Plant response rating, Chickweed [9, 19]: 0
- Windgrass plant response rating ([10]; 8 g ai/ha): 30
- Plant response rating, Windgrass ([10]; 16 g ai/ha, scale 0 to 100): 60
- Plant response rating, Windgrass [10, 19]: 85
- Plant response rating, Barley [11, 20]: 0
- Plant response rating, Barley [11, 18]: 0
- Plant response rating, Barley [11, 19]: 0
- Plant response rating, Barnyardgrass [12, 21]: 75
- Plant response rating, Barnyardgrass [12, 22]: 80
- Plant response rating, Barnyardgrass [12, 23]: 95
- Plant response rating, Barnyardgrass [12, 24]: 60
- Plant response rating, Sedge, Umbrella [13, 21]: 0
- Plant response rating, Sedge, Umbrella [13, 22]: 0
- Plant response rating, Sedge, Umbrella [13, 23]: 85
- Plant response rating, Sedge, Umbrella [13, 24]: 0

SMILES: CCc1cc(-c2ccc(C(F)(F)F)cc2)nn1-c1c(O)cnn(CC)c1=O [Compound 67]
- Plant response rating, Barnyardgrass [1, 14]: 100
- Plant response rating, Barnyardgrass [1, 15]: 100
- Plant response rating, Barnyardgrass [1, 16]: 0
- Plant response rating, Barnyardgrass [1, 17]: 100
- Plant response rating, Corn (corn (Zea mays); [14]): 90
- Plant response rating, Corn (corn (Zea mays); [15]): 100
- Plant response rating, Corn (corn (Zea mays); [16]): 20
- Plant response rating, Corn (corn (Zea mays); [17]): 80
- Plant response rating, Foxtail, Giant [2, 14]: 100
- Plant response rating, Foxtail, Giant [2, 15]: 100
- Plant response rating, Foxtail, Giant [2, 16]: 40
- Plant response rating, Foxtail, Giant [2, 17]: 100
- Plant response rating, Crabgrass, Large [3, 14]: 80
- Plant response rating, Crabgrass, Large [3, 15]: 100
- Plant response rating, Crabgrass, Large [3, 16]: 20
- Plant response rating, Crabgrass, Large [3, 17]: 90
- Plant response rating, Morningglory [4, 14]: 0
- Plant response rating, Morningglory [4, 15]: 0
- Plant response rating, Morningglory [4, 16]: 0
- Plant response rating, Morningglory [4, 17]: 0
- Plant response rating, Pigweed [5, 14]: 0
- Plant response rating, Pigweed [5, 15]: 0
- Plant response rating, Pigweed [5, 16]: 0
- Plant response rating, Pigweed [5, 17]: 0
- Plant response rating, Velvetleaf [6, 14]: 0
- Plant response rating, Velvetleaf [6, 15]: 0
- Plant response rating, Velvetleaf [6, 16]: 0
- Plant response rating, Velvetleaf [6, 17]: 0
- Plant response rating, Wheat [7, 14]: 90
- Plant response rating, Wheat [7, 15]: 100
- Plant response rating, Wheat [7, 16]: 20
- Plant response rating, Wheat [7, 17]: 90
- Canarygrass plant response rating [8, 25]: 50
- Plant response rating, Canarygrass ([8]; 16 g ai/ha, scale 0 to 100): 80
- Plant response rating, Canarygrass ([8]; 31 g ai/ha, scale 0 to 100): 95
- Chickweed plant response rating [9]: 0
- Plant response rating, Chickweed ([9]; 16 g ai/ha, scale 0 to 100): 0
- Plant response rating, Chickweed ([9]; 31 g ai/ha, scale 0 to 100): 0
- Plant response rating, Chickweed [9, 19]: 0
- Windgrass plant response rating ([10]; 8 g ai/ha): 95
- Windgrass plant response rating ([10]; 16 g ai/ha): 100
- Plant response rating, Windgrass ([10]; 31 g ai/ha, scale 0 to 100): 100
- Plant response rating, Windgrass [10, 19]: 100
- Barley plant response rating [11, 25]: 35
- Plant response rating, Barley [11, 20]: 85
- Plant response rating, Barley [11, 18]: 95
- Plant response rating, Barnyardgrass [12, 21]: 25
- Plant response rating, Barnyardgrass [12, 22]: 35
- Plant response rating, Barnyardgrass [12, 23]: 50
- Plant response rating, Barnyardgrass [12, 24]: 0
- Plant response rating, Sedge, Umbrella [13, 21]: 0
- Plant response rating, Sedge, Umbrella [13, 22]: 0
- Plant response rating, Sedge, Umbrella [13, 23]: 0
- Plant response rating, Sedge, Umbrella [13, 24]: 0

SMILES: Cc1cc(-c2ccc(Br)cc2)nn1-c1c(OC(=O)OC(C)C)cnn(C)c1=O [Compound 6]
- Plant response rating, Barnyardgrass [1, 15]: 90
- Plant response rating, Barnyardgrass [1, 26]: 100
- Plant response rating, Barnyardgrass [1, 17]: 90
- Plant response rating, Barnyardgrass [1, 27]: 100
- Plant response rating, Corn (corn (Zea mays); [15]): 100
- Plant response rating, Corn (corn (Zea mays); [26]): 100
- Plant response rating, Corn (corn (Zea mays); [17]): 80
- Plant response rating, Corn (corn (Zea mays); [27]): 90
- Plant response rating, Foxtail, Giant [2, 15]: 90
- Plant response rating, Foxtail, Giant [2, 26]: 90
- Plant response rating, Foxtail, Giant [2, 17]: 100
- Plant response rating, Foxtail, Giant [2, 27]: 100
- Plant response rating, Crabgrass, Large [3, 15]: 90
- Plant response rating, Crabgrass, Large [3, 26]: 90
- Plant response rating, Crabgrass, Large [3, 17]: 100
- Plant response rating, Crabgrass, Large [3, 27]: 100
- Plant response rating, Morningglory [4, 15]: 30
- Plant response rating, Morningglory [4, 26]: 50
- Plant response rating, Morningglory [4, 17]: 30
- Plant response rating, Morningglory [4, 27]: 40
- Plant response rating, Pigweed [5, 15]: 0
- Plant response rating, Pigweed [5, 26]: 30
- Plant response rating, Pigweed [5, 17]: 20
- Plant response rating, Pigweed [5, 27]: 40
- Plant response rating, Velvetleaf [6, 15]: 40
- Plant response rating, Velvetleaf [6, 26]: 50
- Plant response rating, Velvetleaf [6, 17]: 40
- Plant response rating, Velvetleaf [6, 27]: 50
- Plant response rating, Wheat [7, 15]: 50
- Plant response rating, Wheat [7, 26]: 70
- Plant response rating, Wheat [7, 17]: 80
- Plant response rating, Wheat [7, 27]: 90
- Plant response rating, Canarygrass [8, 18]: 95
- Plant response rating, Canarygrass ([8]; 62 g ai/ha, scale 0 to 100): 95
- Plant response rating, Canarygrass ([8]; 125 g ai/ha, scale 0 to 100): 100
- Plant response rating, Canarygrass ([8]; 250 g ai/ha, scale 0 to 100): 100
- Plant response rating, Chickweed [9, 18]: 0
- Plant response rating, Chickweed ([9]; 62 g ai/ha, scale 0 to 100): 0
- Plant response rating, Chickweed ([9]; 125 g ai/ha, scale 0 to 100): 0
- Plant response rating, Chickweed ([9]; 250 g ai/ha, scale 0 to 100): 0
- Plant response rating, Windgrass [10, 18]: 90
- Plant response rating, Windgrass ([10]; 62 g ai/ha, scale 0 to 100): 95
- Plant response rating, Windgrass ([10]; 125 g ai/ha, scale 0 to 100): 100
- Plant response rating, Windgrass ([10]; 250 g ai/ha, scale 0 to 100): 100
- Plant response rating, Barley [11, 18]: 30
- Plant response rating, Barley ([11]; 62 g ai/ha, scale 0 to 100): 30
- Plant response rating, Barley ([11]; 125 g ai/ha, scale 0 to 100): 80
- Plant response rating, Barley ([11]; 250 g ai/ha, scale 0 to 100): 80
- Plant response rating, Barnyardgrass [12, 21]: 40
- Plant response rating, Barnyardgrass [12, 22]: 80
- Plant response rating, Barnyardgrass [12, 23]: 90
- Plant response rating, Barnyardgrass [12, 24]: 0
- Plant response rating, Sedge, Umbrella [13, 21]: 70
- Plant response rating, Sedge, Umbrella [13, 22]: 85
- Plant response rating, Sedge, Umbrella [13, 23]: 95
- Plant response rating, Sedge, Umbrella [13, 24]: 30
